Patent US20250000843A1, “LIGNAN-INSPIRED COMPOUNDS, METHODS OF MAKING, AND USING THEREOF” (IOWAIBO, INC., priority 2023, published 2025)

How the values were obtained:
[1] = system: human induced pluripotent stem (iPS) cells; format: cell-based; details: human
Protocol: The dibenzyl butyl lactone derivative enantiomer A and B were compared to enterolactone and tested to determine toxicity using a human pluripotent stem (hPS) cell-based assay that predicts the developmental toxicity potential. […] The current study was conducted using human induced pluripotent stem (iPS) cells.
The impact of test article exposure on ornithine and cystine metabolism in human induced pluripotent stem (iPS) cells was measured for three test articles (dibenzyl butyl lactone derivative enantiomer A, dibenzyl butyl lactone derivative enantiomer B, and enterolactone) and prediction of the potential for developmental toxicity was made through application of the hPS cell-based assay. Exposure spanned a range of eight treatment levels per test article ranging from 0.03-100 μM.
The observed decrease in the o/c ratio following exposure to each test article is indicative of the potential for developmental toxicity and/or embryo lethality in vivo at or above the dTP concentration. FIGS. 15A-C show the o/c ratio of dibenzyl butyl lactone derivative enantiomer A (FIG. 15A), dibenzyl butyl lactone derivative enantiomer B (FIG. 15B), and (+/−) enterolactone (FIG. 15C). The graphs in FIGS. 15A-C show the cell viability and o/c/ ratio over concentrations of 0.03-100 μM with the straight horizontal line illustrating the developmental toxicity threshold of 0.85.

[2] = system: PC3, a human prostate cancer cell line; assay: MTT toxicity assay in PC3 prostate cancer cells; format: cell-based
Protocol: Toxicity of the dibenzyl butyl lactone derivative (3-[(3,4-dimethoxyphenyl)cyclopentyl], 4-[(3-hydroxyphenol)methyl]oxolan-2-one) in breast cancer cells was evaluated using MTT assay. The MTT toxicity test is a colorimetric assay to measure cells' metabolic activity by serving as a substrate of cellular enzymes that reduce the tetrazolium orange dye, MTT (3-(4,5-Dimethylthiazol-2-yl)-2,5-diphenyltetrazolium bromide) to its insoluble, formazan, giving a purple color. The rate of conversion is directly proportional to cells' mitochondrial metabolic activity via NAD (P) H-dependent cellular oxidoreductase enzymes and serves as a surrogate marker of cell viability.
Cells previously expanded were seeded in 96 well plates at 1.9×10^5 and 9.6×10^4 cells/plate for 24- and 72-hours treatment respectively. This concentration is known to show the best window for the MTT assay, with better sensitivity and low variability.
5 mg of powdered enterolactone, dibenzyl butyl lactone derivative enantiomer A, and dibenzyl butyl lactone derivative enantiomer B were dissolved in 500 μl of DMSO at room temperature. Eight-point curves, ⅓ dilutions (highest concentration 125 μM), were prepared.
Twenty-four hours following the seeding process, the cells were washed once with phosphate buffered saline (PBS) and treated with the respective compounds in cell culture media. Each condition was tested in triplicates. For positive and negative controls, 8 mM methyl methane sulfonate (MMS) and DMSO 100% were used respectively.
Following compound addition, the plates were incubated for 24 and 72 hours. After the treatment period, cells were washed twice with PBS and media was replaced with MTT reagent at 0.5 mg/ml in Dulbecco's modified Eagle medium (DMEM) without phenol red. The plates were gently shaken and incubated for 4 hours. After the incubation the medium was removed and replaced by DMSO. The plates were gently shaken to solubilize the formazan crystals. Absorbance was measured using an Envision multiplate reader at a wavelength of 570 nm.
Toxicity of the dibenzyl butyl lactone derivative (3-[(3,4-dimethoxyphenyl)cyclopentyl], 4-[(3-hydroxyphenol)methyl]oxolan-2-one) in prostate cancer cells was evaluated using MTT assay. The same methods as those used in Example 2 were employed, except the cell line used was PC3, a human prostate cancer cell line, and cell cultures were established in Kaighn's modification of Ham's […] medium.
MTT assay results are shown in Tables 16-21 and expressed as the percentage of cell death after treatment.

Structure (SMILES): O=C1OCC(Cc2ccc3c(c2)OCO3)/C1=C\c1cccc(O)c1 (single isomer, unassigned) [Enantiomer B, 3-[(3,4-dimethoxyphenyl)cyclopentyl], 4-[(3-hydroxyphenol)methyl]oxolan-2-one]
- TP Concentration [1]: 49.8 µM
- TP concentration, fold lower than (+/−) enterolactone TP [1]: 4-6 fold
- dTP Concentration [1]: 15.1 µM
- dTP and TP concentrations compared with anti-cancer drugs tested in this assay [1]: higher than >90% of the anti-cancer drugs
- similarity of dTP concentrations between all three compounds [1]: ≤ 2 fold
- Cell death #1 (%) ([2]; PC3, 24 hours, 0.06 μM): −14.60%
- Cell death #2 (%) ([2]; PC3, 24 hours, 0.06 μM): −12.15%
- Cell death #3 (%) ([2]; PC3, 24 hours, 0.06 μM): −1.24%
- Cell death (%) MEAN ([2]; PC3, 24 hours, 0.06 μM): −9.33%
- Cell death #1 (%) ([2]; PC3, 24 hours, 0.17 μM): −22.81%
- Cell death #2 (%) ([2]; PC3, 24 hours, 0.17 μM): −20.24%
- Cell death #3 (%) ([2]; PC3, 24 hours, 0.17 μM): −14.35%
- Cell death (%) MEAN ([2]; PC3, 24 hours, 0.17 μM): −19.13%
- Cell death #1 (%) ([2]; PC3, 24 hours, 0.51 μM): −15.09%
- Cell death #2 (%) ([2]; PC3, 24 hours, 0.51 μM): −34.33%
- Cell death #3 (%) ([2]; PC3, 24 hours, 0.51 μM): −34.94%
- Cell death (%) MEAN ([2]; PC3, 24 hours, 0.51 μM): −28.12%
- Cell death #1 (%) ([2]; PC3, 24 hours, 1.54 μM): −58.35%
- Cell death #2 (%) ([2]; PC3, 24 hours, 1.54 μM): −51.85%
- Cell death #3 (%) ([2]; PC3, 24 hours, 1.54 μM): −43.77%
- Cell death (%) MEAN ([2]; PC3, 24 hours, 1.54 μM): −51.32%
- Cell death #1 (%) ([2]; PC3, 24 hours, 4.63 μM): −72.93%
- Cell death #2 (%) ([2]; PC3, 24 hours, 4.63 μM): −63.74%
- Cell death #3 (%) ([2]; PC3, 24 hours, 4.63 μM): −39.60%
- Cell death (%) MEAN ([2]; PC3, 24 hours, 4.63 μM): −58.76%
- Cell death #1 (%) ([2]; PC3, 24 hours, 13.89 μM): −71.22%
- Cell death #2 (%) ([2]; PC3, 24 hours, 13.89 μM): −63.50%
- Cell death #3 (%) ([2]; PC3, 24 hours, 13.89 μM): −63.74%
- Cell death (%) MEAN ([2]; PC3, 24 hours, 13.89 μM): −66.15%
- Cell death #1 (%) ([2]; PC3, 24 hours, 41.67 μM): −68.77%
- Cell death #2 (%) ([2]; PC3, 24 hours, 41.67 μM): −35.80%
- Cell death #3 (%) ([2]; PC3, 24 hours, 41.67 μM): −33.35%
- Cell death (%) MEAN ([2]; PC3, 24 hours, 41.67 μM): −45.97%
- Cell death #1 (%) ([2]; PC3, 24 hours, 125.00 μM): 6.23%
- Cell death #2 (%) ([2]; PC3, 24 hours, 125.00 μM): 3.54%
- Cell death #3 (%) ([2]; PC3, 24 hours, 125.00 μM): 4.64%
- Cell death (%) MEAN ([2]; PC3, 24 hours, 125.00 μM): 4.80%
- Cell death #1 (%) ([2]; PC3, 72 hours, 0.06 μM): −22.56%
- Cell death #2 (%) ([2]; PC3, 72 hours, 0.06 μM): −30.41%
- Cell death #3 (%) ([2]; PC3, 72 hours, 0.06 μM): −23.49%
- Cell death (%) MEAN ([2]; PC3, 72 hours, 0.06 μM): −25.49%
- Cell death #1 (%) ([2]; PC3, 72 hours, 0.17 μM): −33.20%
- Cell death #2 (%) ([2]; PC3, 72 hours, 0.17 μM): −39.41%
- Cell death #3 (%) ([2]; PC3, 72 hours, 0.17 μM): −29.79%
- Cell death (%) MEAN ([2]; PC3, 72 hours, 0.17 μM): −34.13%
- Cell death #1 (%) ([2]; PC3, 72 hours, 0.51 μM): −47.57%
- Cell death #2 (%) ([2]; PC3, 72 hours, 0.51 μM): −52.84%
- Cell death #3 (%) ([2]; PC3, 72 hours, 0.51 μM): −52.74%
- Cell death (%) MEAN ([2]; PC3, 72 hours, 0.51 μM): −51.05%
- Cell death #1 (%) ([2]; PC3, 72 hours, 1.54 μM): −52.64%
- Cell death #2 (%) ([2]; PC3, 72 hours, 1.54 μM): −40.34%
- Cell death #3 (%) ([2]; PC3, 72 hours, 1.54 μM): −51.19%
- Cell death (%) MEAN ([2]; PC3, 72 hours, 1.54 μM): −48.05%
- Cell death #1 (%) ([2]; PC3, 72 hours, 4.63 μM): −45.81%
- Cell death #2 (%) ([2]; PC3, 72 hours, 4.63 μM): −40.03%
- Cell death #3 (%) ([2]; PC3, 72 hours, 4.63 μM): −52.74%
- Cell death (%) MEAN ([2]; PC3, 72 hours, 4.63 μM): −46.19%
- Cell death #1 (%) ([2]; PC3, 72 hours, 13.89 μM): −33.31%
- Cell death #2 (%) ([2]; PC3, 72 hours, 13.89 μM): −22.56%
- Cell death #3 (%) ([2]; PC3, 72 hours, 13.89 μM): −34.75%
- Cell death (%) MEAN ([2]; PC3, 72 hours, 13.89 μM): −30.21%
- Cell death #1 (%) ([2]; PC3, 72 hours, 41.67 μM): 11.03%
- Cell death #2 (%) ([2]; PC3, 72 hours, 41.67 μM): 11.96%
- Cell death #3 (%) ([2]; PC3, 72 hours, 41.67 μM): 14.65%
- Cell death (%) MEAN ([2]; PC3, 72 hours, 41.67 μM): 12.55%
- Cell death #1 (%) ([2]; PC3, 72 hours, 125.00 μM): 64.88%
- Cell death #2 (%) ([2]; PC3, 72 hours, 125.00 μM): 61.78%
- Cell death #3 (%) ([2]; PC3, 72 hours, 125.00 μM): 57.24%
- Cell death (%) MEAN ([2]; PC3, 72 hours, 125.00 μM): 61.30%
- prostate cancer cell death as compared to enterolactone ([2]; PC3, at higher concentrations, 24 hours and 72 hours post-treatment): increased prostate cancer cell death as compared to enterolactone
